Test results: US20080015181A1, “Pharmaceutical Compositions Comprising Droxidopa” (Chelsea Therapeutics, Inc., priority 2006, published 2008)

Key:
[1] = test system: plasma norepinephrine; experiment: Plasma norepinephrine concentration after dosing of droxidopa or droxidopa combinations in rats; assay type: in vivo, male Sprague Dawley rats; conditions: 2 hours post-dosing, rat
Method: The pharmacokinetic properties of droxidopa combinations according to the invention were evaluated in male Sprague Dawley rats. Four test groups with four rats in each group were established. Group 1 was administered droxidopa alone as a baseline group. Group 2 was administered droxidopa in combination with the COMT inhibitor entacapone. Group 3 was administered droxidopa in combination with the cholinesterase inhibitor pyridostigmine. Group 4 was administered droxidopa in combination with the MAOI nialamide. For each group, the droxidopa or droxidopa combination was formulated with a vehicle formed of a water solution containing 1% carboxymethylcellulose with 0.2% TWEEN® 80 emulsifier. […] The amounts of entacapone, pyridostigmine, and nialamide used in formulations 2-7 were provided as “low” doses and “high” doses based upon disclosure in the literature of generally accepted dosage ranges for their respective known indications.
Rats in each group were given a single gavage dose of droxidopa alone or the droxidopa combination, the time of dosing being recorded as time=0. Dosing was based upon the weight of the subject and was adjusted to provide all test subjects a droxidopa dose of approximately 100 mg per kg of body weight. Blood samples (approximately 100 μL) were collected at approximately 5, 15, and 30 minutes, and at approximately 1, 2, 4, 8, and 24 hours after dosing. […]

[2] = test system: MAO-A than MAO-B; conditions: known; cited from earlier work
[3] = compound co-administered with droxidopa, relative to droxidopa alone; rat
Method: The pharmacokinetic properties of droxidopa combinations according to the invention were evaluated in male Sprague Dawley rats. Four test groups with four rats in each group were established. Group 1 was administered droxidopa alone as a baseline group. Group 2 was administered droxidopa in combination with the COMT inhibitor entacapone. Group 3 was administered droxidopa in combination with the cholinesterase inhibitor pyridostigmine. Group 4 was administered droxidopa in combination with the MAOI nialamide. For each group, the droxidopa or droxidopa combination was formulated with a vehicle formed of a water solution containing 1% carboxymethylcellulose with 0.2% TWEEN® 80 emulsifier.
Rats in each group were given a single gavage dose of droxidopa alone or the droxidopa combination, the time of dosing being recorded as time=0. Dosing was based upon the weight of the subject and was adjusted to provide all test subjects a droxidopa dose of approximately 100 mg per kg of body weight. […]
As a standard, plasma droxidopa concentration in rats administered the drug vehicle with no droxidopa or droxidopa combinations present was also evaluated, and no droxidopa was detected over a 24 hour period in plasma from the rats administered the vehicle alone. Likewise, no droxidopa was detected in any subjects prior to dosing of the droxidopa or droxidopa combinations. […]

NC(C(=O)O)C(O)c1ccc(O)c(O)c1 (stereo not drawn) [droxidopa, threo-3-(3,4-dihydroxyphenyl)serine]
increase in plasma norepinephrine concentration ([1]; droxidopa alone versus vehicle alone): ~5 fold

CCN(CC)C(=O)/C(C#N)=C/c1cc(O)c(O)c([N+](=O)[O-])c1 [entacapone, [(E)-2-cyano-N,N-diethyl-3-(3,4-dihydroxy-5-nitrophenyl)propenamide]]
plasma norepinephrine concentration in relation to treatment with droxidopa alone (in words) ([1]; compound combined with droxidopa): increased plasma norepinephrine concentration beyond the effect of droxidopa alone

O=C(NCCN1CCOCC1)c1ccc(Cl)cc1 [moclobemide]
selectivity for MAO-A than MAO-B [2]: approximately three times more selective for MAO-A than MAO-B

CN(C)C(=O)Oc1ccc[n+](C)c1 [pyridostigmine, 3-dimethylcarbamoyloxy-1-methylpyridinium]
effect on droxidopa half-life (in words) [3]: increase in droxidopa half-life
